Experimental data published in patent US11292786B2, “Pyrimidine compounds and pharmaceutical compositions for preventing or treating cancers including the same” (HANMI PHARM. CO., LTD., priority 2018, dated 2022).

Experiments:
[1] = Microsomal stability, mice microsomes; type: in vitro ADME; conditions: residual amount % after 1 hour at 37° C., 5 μM, NADPH regenerating system
[2] = Microsomal stability, human liver microsomes; type: in vitro ADME; conditions: residual amount % after 1 hour at 37° C., 5 μM, 1 mg/ml human liver microsomes, NADPH regenerating system
Description: To confirm the reactivity of the test substances with intra-hepatic CYP450 enzymes, 5 μM test substances and 1 mg/ml human liver microsomes were incubated for 1 hour at a temperature of 37° C. in the presence of an NADPH regenerating system. After 1 hour, acetonitrile was added to terminate the reaction, and the supernatant obtained by centrifugation was analyzed by HPLC. The remaining amount % was calculated using the following equation using the value of the reacted sample for 1 hour relative to the value of the 0-minute sample as the peak value obtained as an analysis result. (Peak value of the sample reacted for 1 hour/peak value of the sample at 0 minutes)×100=residual amount %.

Structure (SMILES) | Mice microsomal stability (%) [1] | Human microsomal stability (%) [2]
CCN(CC)C1CCN(c2cc(Nc3ncc(Cl)c(-c4c[nH]c5cc(C)ccc45)n3)cc(C3CC3)c2)CC1 [Control Compound 6] | 29% | 49%
Cc1ccc2c(-c3nc(Nc4cc(CN5C[C@@H](C)NC6(CC6)C5)cc(C5CC5)c4)ncc3Cl)c[nH]c2c1 [Example 27, (R)-5-chloro-N-(3-cyclopropyl-5-((5-methyl-4,7-diazaspiro[2.5]octan-7-yl)methyl)phenyl)-4-(6-methyl-1H-indole-3-yl)pyrimidine-2-amine] | 69% | 72%
